Drawing on paper PMC12140386, “Diallyl Trisulfide From Garlic Regulates RAB18 Phase Separation to Inhibit Lipophagy and Induce Cuproptosis in Hepatic Stellate Cells for Antifibrotic Effects” (Advanced Science, 2025), this text covers FRAP recovery percentage and CETSA for one compound.

For assay [1], the target named is T1, purified RAB18 protein (GFP‐RAB18) (Homo sapiens, UniProt Q9NP72).
T1 construct: GFP-fusion RAB18, expressed in E. coli BL21 (DE3), Ni-NTA purified
In words: FRAP of RAB18 droplets (also AFM). Particulars: 10 µM DATs; 50 µM protein; 50 mM HEPES pH 7.4, 150 mM NaCl; no added CaCl2. Format: binding.

Assay [2] deals with T2, RAB18 protein in LX2 cells (Homo sapiens, UniProt Q9NP72).
T2 construct: endogenous RAB18 in human hepatic stellate cell line LX2 (CETSA)
Description: cellular thermal shift assay. Format: cell-based. Particulars: 10 µM DATs, 24 h.

T2 sequence (Q9NP72 1-203): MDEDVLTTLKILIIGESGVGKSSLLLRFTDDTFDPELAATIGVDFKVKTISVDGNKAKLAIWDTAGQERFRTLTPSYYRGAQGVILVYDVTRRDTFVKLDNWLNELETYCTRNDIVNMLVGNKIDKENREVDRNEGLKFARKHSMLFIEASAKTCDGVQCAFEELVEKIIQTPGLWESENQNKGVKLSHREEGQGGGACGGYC
T1 sequence (Q9NP72 whole entry, the tested form may be a part): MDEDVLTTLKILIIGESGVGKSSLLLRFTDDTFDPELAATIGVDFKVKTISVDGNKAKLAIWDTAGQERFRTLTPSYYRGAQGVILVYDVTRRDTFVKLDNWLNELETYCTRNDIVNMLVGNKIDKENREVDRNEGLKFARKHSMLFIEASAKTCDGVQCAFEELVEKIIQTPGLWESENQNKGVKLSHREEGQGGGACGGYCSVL

For the compound `C=CCSSSCC=C` [DATs, Diallyl trisulfides], the FRAP recovery percentage result in assay [1] is “~ ≈80%”. Further, in assay [2], the CETSA result is “DATs exhibit a strong affinity for RAB18, effectively binding to and stabilizing the conformation of RAB18”.
